# Measured values reported in patent publication US5736548A, “6-aryl pyrazolo[3,4-D] pyrimidin-4-ones and compositions and method of use thereof” (Sanofi, priority 1997, dated 1998).
# Values joined by “and” are separate entries in the source; they are usually repeats but may differ in a detail not shown here. Equal entries are not always repeated.
# Key:
# [1] = tested on: Spontaneously hypertensive rats (SHR); assay: Antihypertensive activity in conscious spontaneously hypertensive rats (mean arterial pressure); type: in vivo; settings: Rattus norvegicus, 5 min, SHR iv
# Experimental: After a 2 day recovery from surgery, three baseline blood pressure measurements were made at 5 min intervals in conscious SHR. Compounds to be tested or vehicle were then administered intravenously in a dose-dependent manner (0.3-10 mg base/kg) while arterial pressure was recorded continuously on a polygraph. The mean arterial pressure response was measured 5 minutes after the administration of each dose of the test compound and the next dose given in a cumulative dose fashion. The response to each dose of the test compound was calculated as the difference from the mean of the three baseline measurements.
# cGMP-PDE V = cGMP-PDE V (Homo sapiens, UniProt O76074); assay: biochemical; set-up: species or system various animal species and man; settings: values separated by / and marked * are separate experimental runs
# Experimental: The cGMP-PDE and other PDE isozymes were isolated from cardiovascular tissues (heart and aorta) of various animal species and man by anion-exchange and affinity chromatography as described by Silver et al., Sec. Messeng. Phos. 13:13-25, 1991; PDE activity, in the presence and absence of test compounds was determined essentially as described by Thompson et al., Adv. Cyclic Nucleotide Res. 10:69-92. To determine the potency and selectivity of compounds as PDE inhibitors, compounds are screened for their effect on cyclic nucleotide hydrolysis at 10 μM. […] The IC50 values are calculated from concentration-response curves as described by Tallarida and Murray, Manual of Pharmacologic Calculations with Computer Programs, Procedure 8, Graded Dose-response, pp. 14-19, Springer-Verlag, New York, 1981.
# [2] = tested on: nitroglycerin tolerant spontaneously hypertensive rats; assay: Reversal of nitroglycerin-induced tolerance in spontaneously hypertensive rats; type: in vivo; settings: for Percent (%) Reversal of Nitroglycerin-induced Tolerance: intravenously 5-10 minutes prior to nitroglycerin challenge
# Experimental: Spontaneously hypertensive rats (17-25 weeks of age) were made nitroglycerin tolerant by repeated administration of high doses of nitroglycerin (100 mg/kg, s.c., 3 times/day for 3 consecutive days). To confirm tolerance challenge doses of nitroglycerin were administered intravenously at doses ranging from 1-300 μg/kg and the maximum change in mean arterial pressure (MAP) for each dose was recorded. Groups of tolerant rats were pretreated with the compounds of the invention (tolerant pretreated group) or with vehicle (0.05N NaOH) (tolerant vehicle pretreated group) intravenously 5-10 minutes prior to administration of challenge doses of nitroglycerin. The administration of challenge doses of nitroglycerin to non-tolerant rats (the non-tolerant group) caused a dose-dependent decrease in MAP of between 10 to 40 mm Hg. […] The area under the dose-MAP curve was calculated for the non-tolerant group and for the tolerant vehicle pretreated group and the tolerant pretreated group. The percent reversal of nitrate-inducedtolerance was calculated as follows:
# Percent Reversal=(AUCtol -pretreated-AUCtol-veh)/(AUCnontol
# AUCnontol =the area under the dose-MAP curve for the non-tolerant group.
# AUCtol-veh =the area under the dose-MAP curve for the tolerant vehicle pretreated group.
# AUCtol-pretreated =the area under the dose-MAP curve for the tolerant pretreated group.
# The following table summarizes the results obtained from the testing of representative compounds of the invention.
# [3] = tested on: Spontaneously hypertensive rats (SHR); assay: Antihypertensive activity in conscious spontaneously hypertensive rats (mean arterial pressure); type: in vivo; settings: Rattus norvegicus, 5 min, po
Structure (SMILES),IC50 (cGMP-PDE V),change in vivo at 10 mg/kg ([1]; 5 minutes after dose) [%],change in vivo at 1 mg/kg ([1]; 5 minutes after dose) [%],ED25 [1] [mg/kg],other results
"C=CCOc1ccccc1-c1nc2c(c(CC)nn2C2CCCC2)c(=O)[nH]1 [9 (b), 1-cyclopentyl-3-ethyl-6-[2-(CH2 =CH--CH2 O)phenyl]pyrazolo[3,4-d]pyrimidin-4-one]",4.9 nM,-19,,,
"CCCOc1ccccc1-c1nc2n(C3CCCC3)[nH]c(C)c-2c(=O)n1 [1 (c), 1-cyclopentyl-3-methyl-6-(2-propoxyphenyl)-pyrazolo[3,4-d]pyrimidin-4-one]",7 nM and 3 nM,,-5,,
"O=[N+]([O-])OCC(CO[N+](=O)[O-])O[N+](=O)[O-] [nitroglycerin, reference compound]",,,,,"hypotensive response to nitroglycerin challenge, tolerant vehicle pretreated group (in words) ([2]; tolerant rats, vehicle pretreated, nitroglycerin 1-300 μg/kg iv): significant reduction of the hypotensive response"
"CCc1[nH]n(C2CCCC2)c2nc(-c3cccc(-n4ccnc4)c3)nc(=O)c1-2 [24 (c), 1-cyclopentyl-3-ethyl-6-[3-(1-imidazolyl)phenyl]pyrazolo-[3,4-d]pyrimidin-4-one]",130 nM,-21,,12.7,change in vivo at 3 mg/kg ([1]; 5 minutes after dose): -13%
"CCc1[nH]n(C2CCCC2)c2nc(-c3cccc(OCCN4CCOCC4)c3)nc(=O)c1-2 [13 (b), 1-cyclopentyl-3-ethyl-6-[3-[2-(4-morpholinyl)ethoxy]phenyl]-pyrazolo[3,4-d]pyrimidin-4-one]",107 nM,,-14,9.5,"Percent (%) Reversal of Nitroglycerin-induced Tolerance ([2]; 0.3 mg/kg): 58%; change in vivo at 0.3 mg/kg ([1]; 0.3 mg/kg, 5 minutes after dose): -11%; change in vivo at 3 mg/kg ([1]; 5 minutes after dose): -19%; change in vivo at 30 mg/kg [3]: -58%"
"CCc1[nH]n(C2CCCC2)c2nc(-c3cccc(OCCN4CCCC4)c3)nc(=O)c1-2 [22 (b), 1-cyclopentyl-3-ethyl-6-[3-[2-(1-pyrrolidinyl)ethoxy]phenyl]pyrazolo[3,4-d]pyrimidin-4-one]",140 nM,-18,,17.9,
"CCc1nn(C2CCCC2)c2nc(-c3ccc(-n4ccnc4)cc3)[nH]c(=O)c12 [8 (a), 1-cyclopentyl-3-ethyl-6-[4-(1-imidazolyl)phenyl]-pyrazolo-[3,4-d] pyrimidin-4-one 1/2 hydrate]",410 nM and 430 nM,-35,,5.7,Percent (%) Reversal of Nitroglycerin-induced Tolerance ([2]; 0.3 mg/kg): 5%; change in vivo at 3 mg/kg ([1]; 5 minutes after dose): -20%; change in vivo at 30 mg/kg [3]: -81%
"CCc1[nH]n(C2CCCC2)c2nc(-c3cccc(OCCN4CCCCC4)c3)nc(=O)c1-2 [19 (b), 1-cyclopentyl-3-ethyl-6-[3-[2-(1-piperidinyl)ethoxy]phenyl]pyrazolo[3,4-d]pyrimidin-4-one]",73 nM,-19,,12.5,
"CCCOc1ccccc1-c1nc2n(C3CCCC3)[nH]c(CC)c-2c(=O)n1 [Example 6, 1-cyclopentyl-3-ethyl-6-(2-propoxyphenyl)-pyrazolo[3,4-d]pyrimidin-4-one]",1.6 nM,-1,,,Percent (%) Reversal of Nitroglycerin-induced Tolerance ([2]; 1.0 mg/kg): 49%

# Second part, led by results:
IC50 (cGMP-PDE V),Structure (SMILES),change in vivo at 10 mg/kg ([1]; 5 minutes after dose) [%],change in vivo at 1 mg/kg ([1]; 5 minutes after dose) [%],ED25 [1] [mg/kg],other results
5.8 nM,"CCOc1ccccc1-c1nc2n(C3CCCC3)[nH]c(CC)c-2c(=O)n1 [Example 4, 1-cyclopentyl-3-ethyl-6-(2-ethoxyphenyl)-pyrazolo[3,4-d]pyrimidin-4-one]",-13,,,
93 nM,"CCc1[nH]n(C2CCCC2)c2nc(-c3cccc(OCC(=O)O)c3)nc(=O)c1-2 [Example 21, 1-cyclopentyl-3-ethyl-6-[3-(carboxymethoxy)phenyl]pyrazolo[3,4-d]pyrimidin-4-one]",-1,,,
200 nM,"CCc1[nH]n(C2CCCC2)c2nc(-c3ccccc3C)nc(=O)c1-2 [Example 3, 1-cyclopentyl-3-ethyl-6-(2-methylphenyl)-pyrazolo[3,4-d]pyrimidin-4-one]",,-7,,
14 nM and 51 nM,"CCc1nn(C2CCCC2)c2nc(-c3ccc(OCCN4CCOCC4)c(OCCN4CCOCC4)c3)[nH]c(=O)c12 [25 (b), 1-cyclopentyl-3-ethyl-6-[3,4-[2-(4-morpholinyl)ethoxy]phenyl]pyrazolo[3,4-d]pyrimidin-4-one]",-38,-18,4.5,change in vivo at 3 mg/kg ([1]; 5 minutes after dose): -27%; change in vivo at 10 mg/kg ([3]; 10 mg/kg): -18%
87 nM,"CCc1[nH]n(C2CCCC2)c2nc(-c3ccccc3OC)nc(=O)c1-2 [Example 5, 1-cyclopentyl-3-ethyl-6-(2-methoxyphenyl)-pyrazolo[3,4-d]pyrimidin-4-one]",,-8,,
